# Measurements from the supplement of paper PMC10307832.
# What was measured:
# Assay in all cases: relative viability (nuclei count vs DMSO), 5 days (fraction); higher = more cells survive
# H3255 = test system: H3255
# Summary of the method: (§1)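 Relative viability is defined as nuclei in treated wells over nuclei in vehicle wells. Duplicate plates were run and medians reported. Lung cancer cell lines in 1536-well plates were dosed by pin tool one day after seeding, with one drug or with a fixed anchor-drug dose plus five library-drug doses (not always all listed) in √10 steps, and nuclei were counted after 5 days.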
# PC-14 = test system: PC-14
# Summary of the method: as §1
# NCI-H727 = test system: NCI-H727
# Summary of the method: as §1
# NCI-H460 = test system: NCI-H460
# Summary of the method: as §1
# LCLC-103H = test system: LCLC-103H
# Summary of the method: as §1
# NCI-H1793 = test system: NCI-H1793
# Summary of the method: as §1
# 201T = test system: 201T
# Summary of the method: as §1
# NCI-H2228 = test system: NCI-H2228
# Summary of the method: as §1
# LU99A = test system: LU99A
# Summary of the method: as §1
# SW 1573 = test system: SW 1573
# Summary of the method: as §1
# A-427 = test system: A-427
# Summary of the method: as §1
# NCI-H1650 = test system: NCI-H1650
# Summary of the method: as §1
# NCI-H2347 = test system: NCI-H2347
# Summary of the method: as §1
# LK-2 = test system: LK-2
# Summary of the method: as §1
# HCC-44 = test system: HCC-44
# Summary of the method: as §1
# NCI-H23 = test system: NCI-H23
# Summary of the method: as §1
# SW 900 = test system: SW 900
# Summary of the method: as §1
# LC-2-ad = test system: LC-2-ad
# Summary of the method: as §1
# COR-L23 = test system: COR-L23
# Summary of the method: as §1
# LCLC-97TM1 = test system: LCLC-97TM1
# Summary of the method: as §1
compound,measurement,setting,value
COc1cc2nccc(Oc3ccc(NC(=O)Nc4cc(C)on4)c(Cl)c3)c2cc1OC [Tivozanib] + CC(=O)c1c(C)c2cnc(Nc3ccc(N4CCNCC4)cn3)nc2n(C2CCCC2)c1=O [Palbociclib] (partner 0.5 µM),relative viability,H3255; first compound 0.005 µM,0.313
same,relative viability,H3255; first compound 0.01581 µM,0.356
same,relative viability,H3255; first compound 0.05 µM,0.294
same,relative viability,H3255; first compound 0.1581 µM,0.334
same,relative viability,H3255; first compound 0.5 µM,0.328
same,relative viability,PC-14; first compound 0.005 µM,0.528
same,relative viability,PC-14; first compound 0.01581 µM,0.538
same,relative viability,PC-14; first compound 0.05 µM,0.549
same,relative viability,PC-14; first compound 0.1581 µM,0.54
same,relative viability,PC-14; first compound 0.5 µM,0.394
same,relative viability,NCI-H727; first compound 0.005 µM,0.659
same,relative viability,NCI-H727; first compound 0.01581 µM,0.659
same,relative viability,NCI-H727; first compound 0.05 µM,0.574
same,relative viability,NCI-H727; first compound 0.1581 µM,0.637
same,relative viability,NCI-H727; first compound 0.5 µM,0.7
same,relative viability,NCI-H460; first compound 0.005 µM,0.147
same,relative viability,NCI-H460; first compound 0.01581 µM,0.196
same,relative viability,NCI-H460; first compound 0.05 µM,0.141
same,relative viability,NCI-H460; first compound 0.1581 µM,0.22
same,relative viability,NCI-H460; first compound 0.5 µM,0.209
same,relative viability,LCLC-103H; first compound 0.005 µM,0.452
same,relative viability,LCLC-103H; first compound 0.01581 µM,0.512
same,relative viability,LCLC-103H; first compound 0.05 µM,0.519
same,relative viability,LCLC-103H; first compound 0.1581 µM,0.551
same,relative viability,LCLC-103H; first compound 0.5 µM,0.471
same,relative viability,NCI-H1793; first compound 0.005 µM,0.309
same,relative viability,NCI-H1793; first compound 0.01581 µM,0.343
same,relative viability,NCI-H1793; first compound 0.05 µM,0.354
same,relative viability,NCI-H1793; first compound 0.5 µM,0.422
same,relative viability,201T; first compound 0.005 µM,0.395
same,relative viability,201T; first compound 0.01581 µM,0.39
same,relative viability,201T; first compound 0.05 µM,0.366
same,relative viability,201T; first compound 0.1581 µM,0.373
same,relative viability,201T; first compound 0.5 µM,0.357
same,relative viability,NCI-H2228; first compound 0.005 µM,0.688
same,relative viability,NCI-H2228; first compound 0.01581 µM,0.68
same,relative viability,NCI-H2228; first compound 0.05 µM,0.883
same,relative viability,NCI-H2228; first compound 0.1581 µM,0.321
same,relative viability,NCI-H2228; first compound 0.5 µM,0.643
same,relative viability,LU99A; first compound 0.005 µM,0.431
same,relative viability,LU99A; first compound 0.01581 µM,0.412
same,relative viability,LU99A; first compound 0.05 µM,0.429
same,relative viability,LU99A; first compound 0.1581 µM,0.306
same,relative viability,LU99A; first compound 0.5 µM,0.408
same,relative viability,SW 1573; first compound 0.005 µM,0.344
same,relative viability,SW 1573; first compound 0.01581 µM,0.412
same,relative viability,SW 1573; first compound 0.05 µM,0.418
same,relative viability,SW 1573; first compound 0.1581 µM,0.391
same,relative viability,SW 1573; first compound 0.5 µM,0.344
same,relative viability,A-427; first compound 0.005 µM,0.51
same,relative viability,A-427; first compound 0.01581 µM,0.55
same,relative viability,A-427; first compound 0.05 µM,0.511
same,relative viability,A-427; first compound 0.1581 µM,0.531
same,relative viability,A-427; first compound 0.5 µM,0.476
same,relative viability,NCI-H1650; first compound 0.005 µM,0.328
same,relative viability,NCI-H1650; first compound 0.01581 µM,0.304
same,relative viability,NCI-H1650; first compound 0.05 µM,0.336
same,relative viability,NCI-H1650; first compound 0.1581 µM,0.389
same,relative viability,NCI-H1650; first compound 0.5 µM,0.319
same,relative viability,NCI-H2347; first compound 0.005 µM,0.48
same,relative viability,NCI-H2347; first compound 0.01581 µM,0.424
same,relative viability,NCI-H2347; first compound 0.05 µM,0.462
same,relative viability,NCI-H2347; first compound 0.1581 µM,0.478
same,relative viability,NCI-H2347; first compound 0.5 µM,0.422
same,relative viability,LK-2; first compound 0.005 µM,0.664
same,relative viability,LK-2; first compound 0.01581 µM,0.674
same,relative viability,LK-2; first compound 0.05 µM,0.503
same,relative viability,LK-2; first compound 0.1581 µM,0.875
same,relative viability,LK-2; first compound 0.5 µM,0.742
same,relative viability,HCC-44; first compound 0.005 µM,0.958
same,relative viability,HCC-44; first compound 0.01581 µM,0.914
same,relative viability,HCC-44; first compound 0.05 µM,0.989
same,relative viability,HCC-44; first compound 0.1581 µM,0.987
same,relative viability,HCC-44; first compound 0.5 µM,0.922
same,relative viability,NCI-H23; first compound 0.005 µM,0.459
same,relative viability,NCI-H23; first compound 0.01581 µM,0.569
same,relative viability,NCI-H23; first compound 0.05 µM,0.488
same,relative viability,NCI-H23; first compound 0.5 µM,0.497
same,relative viability,SW 900; first compound 0.005 µM,0.519
same,relative viability,SW 900; first compound 0.01581 µM,0.552
same,relative viability,SW 900; first compound 0.05 µM,0.559
same,relative viability,SW 900; first compound 0.5 µM,0.531
same,relative viability,LC-2-ad; first compound 0.005 µM,0.471
same,relative viability,LC-2-ad; first compound 0.01581 µM,0.47
same,relative viability,LC-2-ad; first compound 0.05 µM,0.478
same,relative viability,LC-2-ad; first compound 0.1581 µM,0.369
same,relative viability,LC-2-ad; first compound 0.5 µM,0.297
same,relative viability,COR-L23; first compound 0.005 µM,0.246
same,relative viability,COR-L23; first compound 0.01581 µM,0.294
same,relative viability,COR-L23; first compound 0.05 µM,0.319
same,relative viability,COR-L23; first compound 0.1581 µM,0.282
same,relative viability,COR-L23; first compound 0.5 µM,0.213
same,relative viability,LCLC-97TM1; first compound 0.005 µM,0.233
same,relative viability,LCLC-97TM1; first compound 0.01581 µM,0.245
same,relative viability,LCLC-97TM1; first compound 0.05 µM,0.193
same,relative viability,LCLC-97TM1; first compound 0.1581 µM,0.268
same,relative viability,LCLC-97TM1; first compound 0.5 µM,0.214
